Laboratory results from article PMC5730592, “Parallelogram based approach for in vivo dose estimation of genotoxic metabolites in humans with relevance to reduction of animal experiments” (Scientific Reports, 2017).
Values joined by “and” are separate entries in the source; they are usually repeats but may differ in a detail not shown here. Equal values may be shown once. Read-outs that look alike come from different tables or passages of the source.

Experiments:
[1] = cited from earlier work
[2] = cited from earlier work; remark: listed apart in the source
[3] = liver microsomes, rat (male, SD) vs. human (male); cited from earlier work
[4] = design: method as in Doerge at al. (2005); settings: male F344 rats, single dietary exposure ca. 100 µg AA/kg bw, n = 7, direct measurements; ref Doerge at al. (2005); cited from earlier work
[5] = male rat, different AA exposure studies, various methods; cited from earlier work
[6] = In vivo dose (AUC) in human calculated from measured Hb adduct levels after AA exposure; settings: human in vivo study used (dietary AA)
Method: (§1) The in vivo dose or AUC of a compound in blood is the concentration integrated over time (Eq. 2).2 AUC=∫tC(t)dt A method to infer the AUC of an electrophilic compound or metabolite from measured Hb adduct levels (A) has been developed and established by our research group for quantitative monitoring of exposure in humans or for application in animal studies[1],[3]. When Hb adduct formation is measured a short time after a single acute exposure, or after incubation in vitro, AUC can be calculated using Eq. 3. This equation is based on A, and the second-order reaction rate constant (kNu) for the formation of an adduct to a nucleophilic site in Hb from the concerned electrophile.3 AUC=A/kNu
(§2) For calculating the daily AUC from a longer duration of exposure, the daily adduct level increments (a) have to be calculated considering the accumulation and elimination of adducts due to lifetime of the erythrocytes (t er). […] From continuous or subchronic exposure when the exposure time (t) is shorter than t er, the accumulated adduct level is calculated [a × t × (1 − t/2t er)][49].
In vivo dose or AUC of AA and of GA in human after intake of AA-rich food was obtained from Vikström et al.[23]. […] The measured adduct levels were used to calculate the daily adduct level increment, a, and adjusted for intake per kg bw (exposure dose 11 μg AA/kg bw). […]

[7] = In vivo dose (AUC) in rat calculated from measured Hb adduct levels after AA exposure; settings: rat in vivo study used (AA in drinking water)
Method: as §1, §2
For in vivo data on AUC of AA and of GA from AA exposure in rats, a study on short-term oral exposure of rats was used[24]. […] Blood samples were collected and AA- and GA-adducts to N-terminal valine in Hb were measured as described above, and recalculated to the daily increment of the adduct level. […]

[8] = AUC-DEB in rat calculated from measured Hb adduct levels after BD exposure; assay type: in vivo
From the text: (§3) In our first application of the parallelogram approach, AUC-DEB was predicted in a case study on BD exposure. […] In the case of BD, the relatively large inter-species differences in metabolism were an advantage for testing of the approach.

[9] = design: method as in PMID 25448046; settings: rat, for 1 ppm·h of BD exposure; cited from earlier work
[10] = design: method as in PMID 25448046; settings: mouse, for 1 ppm·h of BD exposure; cited from earlier work
[11] = design: method as in PMID 25448046; settings: mouse exposed to BD; cited from earlier work
[12] = design: method as in PMID 25448046; settings: rat exposed to BD; cited from earlier work
[13] = design: method as in PMID 25448046; settings: human, for 1 ppm·h of BD exposure; cited from earlier work
[14] = Parallelogram approach prediction of AUC-DEB in rat from BD exposure; settings: from the parallelogram approach
Method: The inter-species extrapolation was performed using in vitro metabolic data on enzyme kinetics and published Hb adduct data[6]. This study was initiated as the AUC of DEB (AUC-DEB), in humans exposed to BD, had not been possible to measure with available methods.
as §3

[15] = design: method as in PMID 25448046; settings: occupationally BD-exposed humans; cited from earlier work

SMILES | daily Hb adduct level increment per exposure dose ([1]; Human, AA-rich food 4 days, 11 μg AA/kg bw, adducts to N-terminal valine) | AUC-AA ([1]; Human, ca. 11 μg AA/kg bw and day through food, 4 days, n = 9, from Hb adducts) | AUC-AA ([1]; Humans, ca. 2.5 μg AA/kg bw daily through food, 28 days, n = 9, ref Vikström et al. (2011)) | AUC-AA ([1]; Humans, single dose in drinking water 500, 1000 and 3000 µg AA/kg bw, n = 6 males, ref Fennell et al. (2005)) | AUC-AA ([2]; Rat (male F344), 500 and 2000 μg AA/kg bw and day in drinking water, one week, n = 6, from Hb adducts) | AUC of AA ([2]; SD rat (male), subchronic intraperitoneal AA, Hb adducts on cysteine site) | AUC-AA ([2]; male F344 rats, single dose 0.1 mg AA/kg bw, Hb adducts, ref Tareke et al. (2006)) | oxidation to GA, rat compared to human (times faster in rat) [3] | AUC-AA [4] | range of AUC-AA [5] | in vivo levels of AA (estimated) [6] | in vivo levels of AA (estimated) [7] | ratio for rat-to-human of AUC-DEB per AUC-EB [8] | AUC-DEB predicted (parallelogram approach) [9] | AUC-DEB predicted (parallelogram approach) [10] | AUC-DEB calculated from measured Hb adducts levels [11] | AUC-DEB calculated from measured Hb adducts levels [12] | AUC-DEB predicted (parallelogram approach) [13] | ratio for rat-to-human of AUC-DEB per AUC-EB [14] | AUC-DEB calculated from measured Hb adducts levels [15]
C=CC(N)=O [AA, Acrylamide] | 1.4 pmol/g globin per μg AA/kg bw and day | 212 ± 56 nM·h/μg AA per kg bw and 212 nM·h/μg AA per kg bw | 120 nM·h/ μg AA per kg bw | 246 nM·h/ μg AA per kg bw | 34 ± 3 nM·h/μg AA per kg bw and 34 nM·h/μg AA per kg bw | 28.2 nM·h per μg AA per kg bw | 23 nM·h/ μg AA per kg bw | ca. 3 times | 18 nM·h/ μg AA per kg bw | 18–80 nM·h per μg AA per kg bw | about 100 nM | ~25 µM | – | – | – | – | – | – | – | –
C1OC1C1CO1 (centres unmarked) [DEB, 1,2:3,4-diepoxbutane] | – | – | – | – | – | – | – | – | – | – | – | – | 4.3 | 1.26 nM·h | 41 nM·h | 38 nM·h/ppm·h BD | 1.37 nM·h/ppm·h BD | 0.078 nM·h | 2.2 | 0.023 nM·h/ppm·h BD
